Like-named read-outs stand apart in the source and are kept apart here.
Test system: progressive prostatic cancer in stage 4 with confirmed bone metastasis

`[HH]` [hydrogen gas, hydrogen] was tested, and the PSA value (about 1 month after suction started, hydrogen 6.6% by volume, 60 to 90 minutes/day, with bicalutamide, Flivas OD, initial 92.5) was 12.74 ng/mL, the PSA value (about 2 months after suction started, with internal medicines, before the anticancer agent infusion) was 7.53 ng/mL and the “shade densities at the parts of bone metastasis, whole body scintigraphy” value (about 12 months after suction started, visually inspected, combined therapy) was “a half or less”. The PSA value (about 12.5 months after suction started, with internal medicines, docetaxel infusions and hormone injections) was 1.69 ng/mL.

From US20200078393A1, “COMPOSITION COMPRISING HYDROGEN GAS FOR SUPPRESSION OR PREVENTION OF CANCER METASTASIS” (MiZ Company Limited, priority 2018, published 2020)
